Columns and labels:
[1] = target: T1, DNA topoisomerase 1 (Homo sapiens) (UniProt P11387); assay: Inhibition of recombinant human topoisomerase 1 assessed as relaxation of supercoiled plasmid pBR322 DNA at 100 uM by agarose gel electrophoresis relative to control
T1 sequence (whole entry): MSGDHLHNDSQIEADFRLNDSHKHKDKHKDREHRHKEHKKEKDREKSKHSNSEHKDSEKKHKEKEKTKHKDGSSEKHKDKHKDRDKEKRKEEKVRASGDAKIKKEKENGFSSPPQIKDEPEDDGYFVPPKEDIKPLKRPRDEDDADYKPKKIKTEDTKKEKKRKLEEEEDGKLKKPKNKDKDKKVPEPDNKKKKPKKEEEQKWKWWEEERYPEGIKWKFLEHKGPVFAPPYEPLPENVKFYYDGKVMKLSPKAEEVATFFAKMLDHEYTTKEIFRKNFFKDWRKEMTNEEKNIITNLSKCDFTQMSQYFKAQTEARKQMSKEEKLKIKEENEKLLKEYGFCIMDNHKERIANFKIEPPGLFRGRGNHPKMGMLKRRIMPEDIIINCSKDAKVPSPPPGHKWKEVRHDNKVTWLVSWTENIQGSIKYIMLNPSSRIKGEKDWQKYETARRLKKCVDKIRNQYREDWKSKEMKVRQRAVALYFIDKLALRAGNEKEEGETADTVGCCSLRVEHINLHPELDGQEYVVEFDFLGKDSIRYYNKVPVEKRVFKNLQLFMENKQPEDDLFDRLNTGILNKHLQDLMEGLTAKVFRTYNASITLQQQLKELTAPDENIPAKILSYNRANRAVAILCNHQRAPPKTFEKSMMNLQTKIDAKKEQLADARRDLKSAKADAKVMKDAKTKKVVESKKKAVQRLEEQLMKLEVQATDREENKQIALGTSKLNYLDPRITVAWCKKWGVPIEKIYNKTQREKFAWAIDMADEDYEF

[2] = target: T1, DNA topoisomerase 1 (Homo sapiens); assay: Inhibition of recombinant human topoisomerase 1 assessed as relaxation of supercoiled plasmid pBR322 DNA at 100 uM by agarose gel electrophoresis (reference value: […]%)
[3] = target: DNA topoisomerase 2-alpha (Homo sapiens) (UniProt P11388); assay: Inhibition of recombinant human topoisomerase 2alpha assessed as relaxation of supercoiled plasmid pBR322 DNA at 100 uM by agarose gel electrophoresis (reference value: 84.9%)
DNA topoisomerase 2-alpha (Homo sapiens), sequence (P11388 whole entry): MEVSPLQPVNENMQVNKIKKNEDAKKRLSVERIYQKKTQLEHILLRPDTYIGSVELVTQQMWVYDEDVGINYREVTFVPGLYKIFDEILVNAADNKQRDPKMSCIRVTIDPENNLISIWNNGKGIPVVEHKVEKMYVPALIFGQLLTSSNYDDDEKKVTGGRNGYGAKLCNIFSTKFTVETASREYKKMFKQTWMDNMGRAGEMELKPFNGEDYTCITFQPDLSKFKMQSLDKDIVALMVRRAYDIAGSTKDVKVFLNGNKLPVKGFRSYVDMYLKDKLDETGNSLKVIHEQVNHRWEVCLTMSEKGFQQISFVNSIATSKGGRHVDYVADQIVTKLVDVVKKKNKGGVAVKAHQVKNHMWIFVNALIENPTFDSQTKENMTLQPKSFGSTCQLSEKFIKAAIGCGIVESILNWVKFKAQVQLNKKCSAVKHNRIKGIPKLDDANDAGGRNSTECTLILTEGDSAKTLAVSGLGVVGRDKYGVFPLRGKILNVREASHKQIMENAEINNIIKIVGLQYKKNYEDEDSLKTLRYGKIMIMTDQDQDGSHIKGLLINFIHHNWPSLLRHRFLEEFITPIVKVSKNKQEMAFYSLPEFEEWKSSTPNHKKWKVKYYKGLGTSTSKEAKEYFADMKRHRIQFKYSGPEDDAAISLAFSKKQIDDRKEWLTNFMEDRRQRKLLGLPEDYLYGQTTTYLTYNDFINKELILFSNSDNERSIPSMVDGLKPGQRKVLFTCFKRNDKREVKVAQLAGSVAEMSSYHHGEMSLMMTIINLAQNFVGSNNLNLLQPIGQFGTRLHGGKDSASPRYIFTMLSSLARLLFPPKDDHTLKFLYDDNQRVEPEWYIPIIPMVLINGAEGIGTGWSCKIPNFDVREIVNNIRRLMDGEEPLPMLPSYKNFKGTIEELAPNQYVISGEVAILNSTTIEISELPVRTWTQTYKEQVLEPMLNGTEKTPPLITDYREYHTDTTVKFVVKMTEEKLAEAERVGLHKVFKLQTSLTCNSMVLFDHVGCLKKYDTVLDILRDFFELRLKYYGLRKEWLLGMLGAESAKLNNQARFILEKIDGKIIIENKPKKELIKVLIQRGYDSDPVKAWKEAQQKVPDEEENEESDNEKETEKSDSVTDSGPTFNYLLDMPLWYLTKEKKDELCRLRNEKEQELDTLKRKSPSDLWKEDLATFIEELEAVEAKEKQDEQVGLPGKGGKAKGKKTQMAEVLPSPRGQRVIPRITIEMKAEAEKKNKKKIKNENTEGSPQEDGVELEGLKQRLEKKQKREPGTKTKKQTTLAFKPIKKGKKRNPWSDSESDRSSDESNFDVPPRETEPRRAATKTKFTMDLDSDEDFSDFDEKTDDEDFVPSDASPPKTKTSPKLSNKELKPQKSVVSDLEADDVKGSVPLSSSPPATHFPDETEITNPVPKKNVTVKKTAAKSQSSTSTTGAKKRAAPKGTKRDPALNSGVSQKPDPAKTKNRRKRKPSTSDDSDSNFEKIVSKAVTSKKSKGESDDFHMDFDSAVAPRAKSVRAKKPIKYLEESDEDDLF

[4] = target: DNA topoisomerase 2-alpha (Homo sapiens) (UniProt P11388); assay: Inhibition of recombinant human topoisomerase 2alpha assessed as relaxation of supercoiled plasmid pBR322 DNA at 20 uM by agarose gel electrophoresis relative to control
[5] = test system: DU-145; assay: Antiproliferative activity against human DU-145 cells after 72 hrs by EZ-Cytox colorimetric assay; format: functional, cell-based; conditions: DU-145, 72 h
[6] = test system: HCT-15; assay: Antiproliferative activity against human HCT-15 cells after 72 hrs by EZ-Cytox colorimetric assay; format: functional, cell-based; conditions: HCT-15, 72 h
[7] = test system: HeLa; assay: Antiproliferative activity against human HeLa cells after 72 hrs by EZ-Cytox colorimetric assay; format: functional, cell-based
[8] = test system: T47D; assay: Antiproliferative activity against human T47D cells after 72 hrs by EZ-Cytox colorimetric assay; format: functional, cell-based
[9] = target: T1, DNA topoisomerase 1 (Homo sapiens); assay: Inhibition of recombinant human topoisomerase 1 assessed as relaxation of supercoiled plasmid pBR322 DNA at 100 uM by agarose gel electrophoresis (reference value: 81.9%)
[10] = target: T1, DNA topoisomerase 1 (Homo sapiens); assay: Inhibition of recombinant human topoisomerase 1 assessed as relaxation of supercoiled plasmid pBR322 DNA at 20 uM by agarose gel electrophoresis (reference value: 38.3%)
[11] = target: DNA topoisomerase 2-alpha (Homo sapiens) (UniProt P11388); assay: Inhibition of recombinant human topoisomerase 2alpha assessed as relaxation of supercoiled plasmid pBR322 DNA at 100 uM by agarose gel electrophoresis (reference value: 81%)
[12] = target: DNA topoisomerase 2-alpha (Homo sapiens) (UniProt P11388); assay: Inhibition of recombinant human topoisomerase 2alpha assessed as relaxation of supercoiled plasmid pBR322 DNA at 20 uM by agarose gel electrophoresis (reference value: […]%)
[13] = target: T1, DNA topoisomerase 1 (Homo sapiens); assay: Inhibition of recombinant human topoisomerase 1 assessed as relaxation of supercoiled plasmid pBR322 DNA at 100 uM by agarose gel electrophoresis (reference value: 83.2%)
[14] = target: T1, DNA topoisomerase 1 (Homo sapiens); assay: Inhibition of recombinant human topoisomerase 1 assessed as relaxation of supercoiled plasmid pBR322 DNA at 20 uM by agarose gel electrophoresis (reference value: 40.4%)
[15] = target: DNA topoisomerase 2-alpha (Homo sapiens) (UniProt P11388); assay: Inhibition of recombinant human topoisomerase 2alpha assessed as relaxation of supercoiled plasmid pBR322 DNA at 100 uM by agarose gel electrophoresis (reference value: 82.2%)
[16] = target: DNA topoisomerase 2-alpha (Homo sapiens) (UniProt P11388); assay: Inhibition of recombinant human topoisomerase 2alpha assessed as relaxation of supercoiled plasmid pBR322 DNA at 20 uM by agarose gel electrophoresis (reference value: 48.4%)
[17] = target: T1, DNA topoisomerase 1 (Homo sapiens); assay: Inhibition of recombinant human topoisomerase 1 assessed as relaxation of supercoiled plasmid pBR322 DNA at 20 uM by agarose gel electrophoresis relative to control
[18] = Genotoxicity in human HCT-15 cells assessed as production of Ub1-gamma-H2AX at 2 uM and measured by western blot analysis; format: toxicity, cell-based; conditions: hct-15, 2 µM
[19] = Genotoxicity in human HCT-15 cells assessed as production of gamma-H2AX at 2 uM and measured by western blot analysis; format: toxicity, cell-based; conditions: hct-15, 2 µM
[20] = Genotoxicity in human HCT-15 cells assessed as production of fragmented DNA tails at 2 uM and measured by comet assay; format: toxicity, cell-based; conditions: hct-15, 2 µM
[21] = Genotoxicity in human HCT-15 cells assessed as production of Ub1-gamma-H2AX at 0.2 uM and measured by western blot analysis; format: toxicity, cell-based; conditions: hct-15, 0.2 µM
[22] = Genotoxicity in human HCT-15 cells assessed as production of gamma-H2AX at 0.2 uM and measured by western blot analysis; format: toxicity, cell-based; conditions: hct-15, 0.2 µM
[23] = Genotoxicity in human HCT-15 cells assessed as production of fragmented DNA tails at 0.2 uM and measured by comet assay; format: toxicity, cell-based; conditions: hct-15, 0.2 µM
[24] = Toxicity in mouse assessed as reduction in number of white blood cells at 2 to 20 mg/kg; format: organism-based; conditions: in vivo, dose 2-20 mg/kg
[25] = Toxicity in mouse assessed as reduction in number of absolute neutrophil count at 2 to 20 mg/kg; format: organism-based; conditions: dose 2-20 mg/kg
[26] = Toxicity in mouse assessed as reduction in number of red blood cells at 20 mg/kg; format: organism-based; conditions: in vivo
[27] = Toxicity in mouse assessed as reduction in hemoglobin level at 20 mg/kg; format: organism-based; conditions: in vivo
[28] = Toxicity in mouse assessed as increase in mean corpuscular volume of RBC at 20 mg/kg; format: organism-based, Erythrocyte; conditions: in vivo
[29] = Toxicity in mouse assessed as increase in d red cell distribution width at 20 mg/kg; format: organism-based; conditions: in vivo
[30] = Toxicity in mouse assessed as reduction in number of red blood cells at 2 mg/kg; format: organism-based; conditions: in vivo
[31] = Toxicity in mouse assessed as reduction in hemoglobin level at 2 mg/kg; format: organism-based; conditions: in vivo
[32] = Toxicity in mouse assessed as increase in mean corpuscular volume of RBC at 2 mg/kg; format: organism-based, Erythrocyte; conditions: in vivo
[33] = Toxicity in mouse assessed as increase in d red cell distribution width at 2 mg/kg; format: organism-based; conditions: in vivo

SMILES	inhibition [2] [%]	inhibition [3] [%]	inhibition [4] [%]	inhibition [9] [%]	inhibition [10] [%]	inhibition [11] [%]	IC50 [5] [µM]	IC50 [6] [µM]	IC50 [7] [µM]	IC50 [8] [µM]	also measured
O=C1c2ccccc2-c2nc(-c3ccc(O)cc3)cc(-c3ccccc3)c21	–	–	–	–	–	–	–	–	–	–	inhibition [1]: 0%
OC1c2ccccc2-c2nc(-c3cccc(OC(F)(F)F)c3)cc(-c3ccccc3)c21 (configuration not stated)	18.3	66.7	12.2	–	–	–	> 50	> 50	> 50	14.8	–
O=C1c2ccccc2-c2nc(-c3ccccc3Br)cc(-c3ccccc3)c21	–	–	–	–	–	–	8.42	> 50	> 50	> 50	inhibition [13]: 82.9%; inhibition [14]: 0%; inhibition [15]: 93.4%; inhibition [16]: 60.4%
O=C1c2ccccc2-c2nc(-c3cccc(OC(F)(F)F)c3)cc(-c3ccccc3)c21	–	–	–	100	8.5	0.5	17.8	27.6	> 50	16.8	–
OC1c2ccccc2-c2nc(-c3ccccc3OC(F)(F)F)cc(-c3ccccc3)c21 (configuration not stated)	37.4	86	13.8	–	–	–	0.71	7.33	1730	1.06	inhibition [17]: 1%
OC1c2ccccc2-c2nc(-c3cccc(C(F)(F)F)c3)cc(-c3ccccc3)c21 (configuration not stated)	25.9	57.3	9.3	–	–	–	> 50	> 50	> 50	> 50	–
COc1cc([C@@H]2c3cc4c(cc3[C@@H](O[C@@H]3O[C@@H]5CO[C@@H](C)O[C@H]5[C@H](O)[C@H]3O)[C@H]3COC(=O)[C@H]23)OCO4)cc(OC)c1O [ETOPOSIDE]	–	–	–	–	–	–	4.13	2.38	8.09	5.58	Activity [18]: Toxic; Activity [19]: Toxic; Activity [20]: Toxic; Activity [21]: Non-Toxic; Activity [22]: Non-Toxic; Activity [23]: Non-Toxic; Activity [24]: Toxic; Activity [25]: Toxic; Activity [26]: Toxic; Activity [27]: Toxic; Activity [28]: Toxic; Activity [29]: Toxic; Activity [30]: Non-Toxic; Activity [31]: Non-Toxic; Activity [32]: Non-Toxic; Activity [33]: Non-Toxic
O=C1c2ccccc2-c2nc(-c3ccc(Cl)cc3)cc(-c3ccccc3)c21	–	–	–	–	–	–	5.76	> 50	> 50	> 50	inhibition [13]: 80.4%; inhibition [14]: 0%; inhibition [15]: 91.3%; inhibition [16]: 60%

Second part, led by results:

inhibition [2] [%]	inhibition [3] [%]	inhibition [4] [%]	inhibition [9] [%]	inhibition [10] [%]	inhibition [11] [%]	SMILES	IC50 [5] [µM]	IC50 [6] [µM]	IC50 [7] [µM]	IC50 [8] [µM]	also measured
–	–	–	45	15.6	83.1	O=C1c2ccccc2-c2nc(-c3ccccc3C(F)(F)F)cc(-c3ccccc3)c21	34	> 50	> 50	> 50	inhibition [12]: 0.9%
–	–	–	89.8	8.1	57.2	O=C1c2ccccc2-c2nc(-c3ccc(C(F)(F)F)cc3)cc(-c3ccccc3)c21	42.2	20.5	> 50	> 50	inhibition [12]: 0.3%
